Experimental data reported in patent publication US20200353027A1, “A LILAC GINKGO BRICK TEA WITH LIPID LOWERING AND LIVER PROTECTION ACTIVITIES AND A METHOD OF PREPARING THE SAME” (SHAANXI UNIVERSITY OF SCIENCE AND TECHNOLOGY, priority 2019, published 2020).

System: mice given ethanol alcohol (alcohol's damage to the liver)
Assay: Liver protection in mice given ethanol alcohol
Assay type: in vivo, Kunming mice
Details: Tiopronin 50 mg/kg/day, ethanol 3 g/kg/day, after 25 days, blood
Protocol: To study the liver protection effect of the Lilac Ginkgo Brick Tea of Example 1, the following experiments were conduct.
Male Kunming mice, 50 SPF grades, 5 weeks old, 30-35 g, were randomly divided into Blank Group, Control Group, Tiopronin Positive Control Group, Low Dosage Group, and High Dosage Group. 100 g of Lilac Ginkgo Brick Tea was boiled in 1 L water, filtered, and concentrated to 50 mL concentrated Lilac Ginkgo Brick Tea solution. Blank Group and Control Group were given water and regular food; Tiopronin Group was given 50 mg/kg/day Tiopronin; and Low Dosage Group and High Dosage Group were given 20 mL/kg/day and 50 mL/kg/day concentrated Lilac Ginkgo Brick Tea solution, respectively, and regular food. Control Group, Tiopronin Positive Control Group, Low Dosage Group, and High Dosage Group were given 3 g/kg/day (0.01 mL/g) ethanol alcohol. Blank Group was given equal volume water. After 25 days, the mice were fasted for 2 hours, and blood samples were taken to determine alanine aminotransferase (ALT), aspartate aminotransferase (AST), and triglyceride (TG) levels.

## CC(S)C(=O)NCC(=O)O (stereo not drawn) [Tiopronin]
  ALT (alanine aminotransferase): 64.80 ± 10.47 U/L
  AST (aspartate aminotransferase): 140.39 ± 20.92 U/L
  TG (triglyceride): 1.295 ± 0.43 mmol/L
